≈ marks a conversion by molar mass, not a printed value. Read-outs that look alike come from different tables or passages of the source.
Tests used:
[1] = test system: quinolone susceptible pneumococci (ciprofloxacin MICs ≦4.0 μg/ml); test: Agar dilution MICs of 207 quinolone susceptible pneumococcal strains; assay type: cell-based, Streptococcus pneumoniae; conditions: agar dilution; for MIC: read-out: MIC range
Protocol: All susceptible, and some intermediate and resistant strains, were recent U.S. isolates. The remainder of intermediate and resistant strains were isolated in South Africa, Spain, France, Central and Eastern Europe, and Korea. […] Additionally these strains were tested for mutations in parC, gyrA, parE, and gyrB (Pan, et al., Antimicrob. Agents Chemother. 40:2321-2326, 1996) and for efflux mechanism (Brenwald, et al., Antimicrob. Agents Chemother. 42:2032-2035, 1998). For time-kill studies, 4 penicillin susceptible, 4 intermediate and 4 resistant strains (2 quinolone resistant) were tested, while for PAE studies 5 quinolone susceptible and 1 resistant strains were studied.
(§1) Agar dilution methodology was performed on 234 strains as described previously (M. R. Jacobs, Clin. Infect. Dis. 15:119-127, 1992; Jacobs, et al., Rev. Med. Microbiol. 6:77-93, 1995), using Mueller-Hinton agar (BBL Microbiology Systems, Cockeysville, Md.) supplemented with 5% sheep blood. Broth MICs for 12 strains tested by time-kill and 6 tested by PAE were performed according to NCCLS recommendations (Methods for Dilution Antimicrobial Susceptibility Tests for Bacteria that Grow Aerobically, 3rd Edition, NCCLS, Villanova, Pa.) using cation-adjusted Mueller-Hinton broth with 5% lysed defibrinated horse blood. Standard quality control strains, including Streptococcus pneumoniae ATCC 49619, were included in each run of agar and broth dilution MICs.

pneumococcal strains = test: Microbroth dilution MICs of strains tested by time-kill and PAE; assay type: cell-based; conditions: Streptococcus pneumoniae, read-out: Microdilution MIC
Protocol: as §1

[2] = test system: pneumococci (5 quinolone susceptible and 1 resistant strains); test: Post-antibiotic effect (PAE) testing; assay type: cell-based, Streptococcus pneumoniae; conditions: for PAE for non-quinolone compounds: range over strains
Protocol: The post-antibiotic effect (PAE) (Craig, et al., V. Lorian (ed.) Antibiotics in Laboratory Medicine, Williams and Wilkins, Baltimore, pages 296-399, 1996) was determined by the viable plate count method, using Mueller-Hinton broth (MHB) supplemented with 5% lysed horse blood when testing pneumococci. […] Additionally, the one quinolone resistant strain was exposed at quinolone concentrations 5×MIC. Tubes containing 5 ml broth with antibiotic were inoculated with approximately 5×10^6 cfu/ml. Growth controls with inoculum but no antibiotic were included with each experiment. Tubes were placed in a shaking water bath at 35° C. for 1 h. At the end of the exposure period, cultures were diluted 1:1000 to remove antibiotic.
Viability counts were determined before exposure and immediately after dilution (0 h), and then every 2 h until tube turbidity reached a #1 McFarland standard. Inocula were prepared by suspending growth from an overnight blood agar plate in broth. The broth was incubated at 35° C. for 2-4 h in a shaking water bath until turbidity matched a #1 McFarland standard, and checked for viability by plate counts (Spangler, et al., Antimicrob. Agents Chemother. 41:2173-9176, 1997; Spangler, et al., Antimicrob. Agents Chemother. 42:1253-1255, 1998).
The PAE was defined as PAE=T-C; T=time required for viability counts of an antibiotic-exposed culture to increase by 1 log10 above counts immediately after dilution; C=corresponding time for growth control. For each experiment, viability counts (log10 cfu/ml) were plotted against time, and results expressed as the mean of two separate assays±S D (Craig, et al., V. Lorian (ed), Antibiotics in Laboratory Medicine, Williams and Wilkins, Baltimore, pages 296-329, 1996).

[3] = test system: quinolone resistant pneumococci; test: Determination of efflux mechanism: MICs in the presence and absence of reserpine; assay type: cell-based, Streptococcus pneumoniae; conditions: for number of strains with lower MICs in the presence of reserpine: of 28 quinolone resistant strains, 10 μg/ml reserpine
Protocol: MICs were determined in the presence and absence of 10 μg/ml of reserpine (Sigma Chemicals, St. Louis, Mo.) as known in the art.
MICs were determined in the presence and absence of […] of reserpine (Sigma Chemicals, St. Louis, Mo., USA) as described previously (Brenwald, et al., Antimicrob. Agents Chemother. 42:2039-2035, 1998 and Davies, et al., Antimicrob. Agents Chemother. 43:1177-1182S, 1999).

[4] = test system: quinolone-resistant Haemophilus influenzae strains; test: Microdilution MIC determination in HTM for quinolone-resistant Haemophilus influenzae strains; assay type: cell-based; conditions: 9 quinolone-resistant Haemophilus influenzae strains
Protocol: Inocula were prepared from chocolate agar plates incubated for a full 24 hours by the direct colony suspension method as follows: In a tube of Mueller-Hinton broth (Difco), an organism suspension was made to a density of a 0.5 McFarland standard (1×10^8 CFU/ml). The latter inoculum was diluted in sterile saline such that final organisms suspensions in trays yielded colony counts of 3-8×10^5 CFU/ml. Frozen microdilution trays were obtained from MicroMedia Systems, Inc. (Cleveland, Ohio, USA). Each tray contained all antimicrobials prepared in freshly made HTM. Wells were inoculated with 100 μl suspensions and incubated in ambient air at 35° C. for 20-24 hours. The lowest drug concentration showing no growth was read as the MIC. Standard quality control strains, including H. influenzae ATCC 49766, H. influenzae ATCC 49247, Staphylococcus aureus ATCC 29213 and Escherichia coli ATCC 25922 were included with each run.

[5] = Streptococcus pneumoniae, Penicillin I strains, read-out: MIC90
[6] = Streptococcus pneumoniae, Penicillin R strains
[7] = Streptococcus pneumoniae, Penicillin R strains, read-out: MIC90
[8] = Streptococcus pneumoniae, Penicillin S strains, read-out: MIC90
[9] = strain 1 (S) penicillin susceptible
[10] = strain 2 (S) penicillin susceptible
[11] = strain 3 (S) penicillin susceptible, quinolone-resistant
[12] = strain 5 (I) penicillin intermediate
[13] = strain 6 (I) penicillin intermediate
[14] = strain 9 (R) penicillin resistant
[15] = strain 12 (R) penicillin resistant
[16] = 5×MIC, quinolone resistant strain
[17] = 10×MIC for 1 h, range over 5 quinolone susceptible strains
[18] = Streptococcus pneumoniae, Penicillin I strains
[19] = Streptococcus pneumoniae, Penicillin S strains
[20] = strain 4 (S) penicillin susceptible, quinolone-resistant
[21] = strain 7 (I) penicillin intermediate
[22] = strain 8 (I) penicillin intermediate
[23] = strain 11 (R) penicillin resistant

| MIC90 [1, 5] [µg/mL] | MIC50 [1, 6] [µg/mL] | MIC90 [1, 7] [µg/mL] | MIC90 [1, 8] [µg/mL] | MIC90 ([1]; Penicillin R strains) [µg/mL] | SMILES | MIC (pneumococcal strains; [9]) [µg/mL] | MIC (pneumococcal strains; [10]) [µg/mL] | MIC (pneumococcal strains; [11]) [µg/mL] | MIC (pneumococcal strains; [12]) [µg/mL] | MIC (pneumococcal strains; [13]) [µg/mL] | MIC (pneumococcal strains; [14]) [µg/mL] | MIC (pneumococcal strains; strain 10 (I)) [µg/mL] | MIC (pneumococcal strains; [15]) [µg/mL] | PAE for non-quinolone compounds ([2]; 10×MIC) [h] | number of strains with lower MICs in the presence of reserpine [3] [strains] | Number of dilutions decrease after incubation with reserpine ([3]; strain 11) [X] | Number of dilutions decrease after incubation with reserpine ([3]; strain 23) [X] | Number of dilutions decrease after incubation with reserpine ([3]; strain 28) [x X] | PAE [2, 16] [h] | PAE [2, 17] [h] | also measured |
| --- | --- | --- | --- | --- | --- | --- | --- | --- | --- | --- | --- | --- | --- | --- | --- | --- | --- | --- | --- | --- | --- |
| > 128 | 4 (≈ 5.34 µM) | > 128 | 0.5 (≈ 0.668 µM) | >128.0 | CC[C@H]1OC(=O)[C@H](C)[C@@H](O[C@H]2C[C@@](C)(OC)[C@@H](O)[C@H](C)O2)[C@H](C)[C@@H](O[C@@H]2O[C@H](C)C[C@H](N(C)C)[C@H]2O)[C@](C)(O)C[C@@H](C)CN(C)[C@H](C)[C@@H](O)[C@]1(C)O [Azithromycin, azithromycin] | 0.008 (≈ 0.0107 µM) | 0.06 (≈ 0.0801 µM) | > 64 | > 64 | 0.03 (≈ 0.0401 µM) | > 64 | > 64 | > 64 | 1.3 to 3.0 |  |  |  |  |  |  | MIC90 ([1]; Penicillin I strains): >128.0 µg/mL |
|  |  |  |  |  | O=C(O)c1cn(C2CC2)c2cc(N3CCNCC3)c(F)cc2c1=O [Ciprofloxacin, ciprofloxacin] |  |  |  |  |  |  |  |  |  | 23 | 16 | 8 | 8 | 3.7 | 0.5 to 1.5 | Number of dilutions decrease after incubation with reserpine ([3]; strain 1): 2x X; Number of dilutions decrease after incubation with reserpine ([3]; strain 2): 8x X; Number of dilutions decrease after incubation with reserpine ([3]; strain 6): 2X; Number of dilutions decrease after incubation with reserpine ([3]; strain 8): 2X; Number of dilutions decrease after incubation with reserpine ([3]; strain 9): 8X; Number of dilutions decrease after incubation with reserpine ([3]; strain 10): 2X; Number of dilutions decrease after incubation with reserpine ([3]; strain 13): 2X; Number of dilutions decrease after incubation with reserpine ([3]; strain 18): 2X; Number of dilutions decrease after incubation with reserpine ([3]; strain 19): 2X; Number of dilutions decrease after incubation with reserpine ([3]; strain 20): 2X; Number of dilutions decrease after incubation with reserpine ([3]; strain 21): 2X; Number of dilutions decrease after incubation with reserpine ([3]; strain 22): 2X; Number of dilutions decrease after incubation with reserpine ([3]; strain 24): 2x X; PAE ([2]; 10×MIC, quinolone resistant strain): 6.3 h; MIC50 [4]: 1 µg/mL (≈ 3.02 µM); MIC Range [4]: 0.25 to 8.0 µg/mL |
| 32 (≈ 42.8 µM) | 2 (≈ 2.67 µM) | > 128 | 0.06 (≈ 0.0802 µM) | >128.0 | CC[C@H]1OC(=O)[C@H](C)[C@@H](O[C@H]2C[C@@](C)(OC)[C@@H](O)[C@H](C)O2)[C@H](C)[C@@H](O[C@@H]2O[C@H](C)C[C@H](N(C)C)[C@H]2O)[C@](C)(OC)C[C@@H](C)C(=O)[C@H](C)[C@@H](O)[C@]1(C)O [Clarithromycin, clarithromycin] | 0.008 (≈ 0.0107 µM) | 0.03 (≈ 0.0401 µM) | > 64 | 32 (≈ 42.8 µM) | 0.008 (≈ 0.0107 µM) | > 64 | > 64 | > 64 | 1.8 to 4.5 |  |  |  |  |  |  | MIC50 [1, 18]: 0.03 µg/mL (≈ 0.0401 µM); MIC50 [1, 19]: 0.03 µg/mL (≈ 0.0401 µM); MIC (pneumococcal strains; [20]): 0.03 µg/mL (≈ 0.0401 µM); MIC (pneumococcal strains; [21]): 0.016 µg/mL (≈ 0.0214 µM); MIC (pneumococcal strains; [22]): 0.03 µg/mL (≈ 0.0401 µM); MIC (pneumococcal strains; [23]): 0.03 µg/mL (≈ 0.0401 µM) |

| SMILES | MIC90 [1, 5] [µg/mL] | MIC50 [1, 6] [µg/mL] | MIC90 [1, 7] [µg/mL] | MIC90 [1, 8] [µg/mL] | MIC90 ([1]; Penicillin R strains) [µg/mL] | MIC (pneumococcal strains; [9]) [µg/mL] | MIC (pneumococcal strains; [10]) [µg/mL] | MIC (pneumococcal strains; [11]) [µg/mL] | MIC (pneumococcal strains; [12]) [µg/mL] | MIC (pneumococcal strains; [13]) [µg/mL] | MIC (pneumococcal strains; [14]) [µg/mL] | MIC (pneumococcal strains; strain 10 (I)) [µg/mL] | MIC (pneumococcal strains; [15]) [µg/mL] | PAE for non-quinolone compounds ([2]; 10×MIC) [h] | number of strains with lower MICs in the presence of reserpine [3] [strains] | Number of dilutions decrease after incubation with reserpine ([3]; strain 11) [X] | Number of dilutions decrease after incubation with reserpine ([3]; strain 23) [X] | Number of dilutions decrease after incubation with reserpine ([3]; strain 28) [x X] | PAE [2, 16] [h] | PAE [2, 17] [h] | also measured |
| --- | --- | --- | --- | --- | --- | --- | --- | --- | --- | --- | --- | --- | --- | --- | --- | --- | --- | --- | --- | --- | --- |
| C[C@H]1COc2c(N3CCN(C)CC3)c(F)cc3c(=O)c(C(=O)O)cn1c23 [Levofloxacin, levofloxacin] | 2 (≈ 5.53 µM) | 1 (≈ 2.77 µM) | 2 (≈ 5.53 µM) | 2 (≈ 5.53 µM) |  | 2 (≈ 5.53 µM) | 1 (≈ 2.77 µM) | 32 (≈ 88.6 µM) | 1 (≈ 2.77 µM) | 2 (≈ 5.53 µM) | 2 (≈ 5.53 µM) | 2 (≈ 5.53 µM) | 2 (≈ 5.53 µM) |  | 7 | 4 | 2 | 4 | 1.3 | 0.9 to 2.3 | MIC50 [1, 18]: 1 µg/mL (≈ 2.77 µM); MIC [1, 18]: 0.5 to 4 µg/mL (≈ 1.38 to 11.1 µM); MIC [1, 6]: 1 to 2 µg/mL (≈ 2.77 to 5.53 µM); MIC50 [1, 19]: 1 µg/mL (≈ 2.77 µM); MIC [1, 19]: 0.125 to 4 µg/mL (≈ 0.346 to 11.1 µM); MIC50 ([1]; Streptococcus pneumoniae, all 207 strains (64 penicillin susceptible, 68 intermediate, 75 resistant)): 1 µg/mL (≈ 2.77 µM); MIC90 ([1]; Streptococcus pneumoniae, all 207 strains (64 penicillin susceptible, 68 intermediate, 75 resistant), read-out: MIC90): 2 µg/mL (≈ 5.53 µM); Number of dilutions decrease after incubation with reserpine ([3]; strain 7): 2X; Number of dilutions decrease after incubation with reserpine ([3]; strain 12): 2X; Number of dilutions decrease after incubation with reserpine ([3]; strain 25): 2x X; Number of dilutions decrease after incubation with reserpine ([3]; strain 26): 2x X; MIC (pneumococcal strains; [20]): 32 µg/mL (≈ 88.6 µM); MIC (pneumococcal strains; [21]): 1 µg/mL (≈ 2.77 µM); MIC (pneumococcal strains; [22]): 1 µg/mL (≈ 2.77 µM); MIC (pneumococcal strains; [23]): 1 µg/mL (≈ 2.77 µM); MIC50 [4]: 1 µg/mL (≈ 2.77 µM); MIC Range [4]: 0.25 to 4.0 µg/mL |

Reference: patent US20040044006A1, “Methods of use of quinolone compounds against pneumococcal and haemophilus bacteria” (priority 1999, published 2004)
